# Results: publication PMC11449226, “Characterization of a β-carotene isomerase from the cyanobacterium Cyanobacteria aponinum” (Philosophical Transactions of the Royal Society B: …, 2024)
# Target: T1, CaD27 (Cyanobacterium aponinum, UniProt K9Z764)
# T1 construct: gene Cyan10605_2981; thioredoxin fusion (pThio-Dan1-CaD27(-cTP)) in E. coli BL21(DE3) with pGro7 chaperones; crude lysate; Pfam PF13225 family
# T1 sequence (K9Z764 1-216): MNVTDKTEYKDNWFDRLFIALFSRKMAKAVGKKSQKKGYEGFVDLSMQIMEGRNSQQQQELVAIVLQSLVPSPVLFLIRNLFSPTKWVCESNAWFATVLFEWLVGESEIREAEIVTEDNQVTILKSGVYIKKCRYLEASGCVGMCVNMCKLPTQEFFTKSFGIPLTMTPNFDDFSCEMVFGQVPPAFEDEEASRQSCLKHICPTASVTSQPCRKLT
# Experiment: isomerization assay, UHPLC
# Assay type: biochemical
# Settings: crude lysate of E. coli expressing thioredoxin-CaD27, compared with thioredoxin control
structure (smiles),measurement,setting,value
CC1=C(/C=C/C(C)=C/C=C/C(C)=C/C=C/C=C(C)/C=C/C=C(C)/C=C/C2=C(C)CCCC2(C)C)C(C)(C)CCC1 [all-trans-β-carotene],"isomerization assay, UHPLC","products 9-cis- and 13-cis-beta-carotene, also tested in beta-carotene-accumulating E. coli","we only detected the isomerization of all-trans-β-carotene into 9-cis, and 13-cis-β-carotene"
CC1=C(/C=C/C(C)=C/C=C/C(C)=C\C=C\C=C(C)\C=C\C=C(C)\C=C\C2=C(C)CCCC2(C)C)C(C)(C)CCC1 [13-cis-β-carotene],"isomerization assay, UHPLC",product 9-cis-beta-carotene,thioredoxin-CaD27 converted 13-cis-β-carotene into 9-cis-β-carotene
